Molecular target: T1, Kv1.3 (Homo sapiens, UniProt P22001)
T1 construct: expressed in transfected cells; host or cells: CHO (Kv1.3/CHO)
Assay: Electrophysiology: planar patch-clamp of Kv1.3 currents, IC50 from steady state current amplitude
Type: cell-based
Conditions: Kv1.3 electrophysiology, results according to Method D1, read-out: IC50 (Kv1.3 ephys steady state)
Experimental: The inhibition data shown for the compounds of the list below was calculated using the steady state current amplitude at the end of the depolarising pulse in patch clamp evaluations (as described in the Biology Protocols: 1. Electrophysiology).
Kv1.x currents were measured in Kv1.3/CHO or Kv1.5/CHO cells using a planar electrode version (Nanion Technologies GMBH) of the patch-clamp technique. Whole-cell Kv1.x current transients were evoked by 500 ms depolarising voltage pulses to +40 mV from a holding potential of −80 mV applied at 10 s intervals for Kv1.5 and at 30 s intervals for Kv1.3 to allow adequate time for recovery from inactivation. Cells were continuously bathed in a buffered saline solution containing (mM): 160 NaCl, 4.5 KCl, 2 CaCl2, 1 MgCl2, 5 glucose, 10 HEPES, pH 7.4, 290-310 mOsm·Kg^−1. The internal (pipette) solution contained (mM): 10 NaCl, 70 KF, 75 KCl, 2 MgCl2, 10 HEPES, 10 EGTA, pH 7.2, 290-310 mOsm·Kg^−1. Series resistance compensation (60-80%) was applied to cells in which the peak current amplitude exceeded 2 nA.
Compound Preparation and Potency Assessment
Compounds were initially dissolved in DMSO to 10 mM. After further dilution in DMSO, compounds were finally diluted in bath solution 1/200 (to give a final DMSO concentration of 0.5%) and applied directly to the recording chamber. Compounds were added at increasing concentrations allowing ample time for steady state block to be achieved between each concentration. Each compound was tested at 5-6 different concentrations on 2-3 cells. Compound IC50 values were determined by fitting the average normalised reduction of either the current integral or the steady state current amplitude at the end of the 500 ms depolarising pulse obtained at each compound concentration to the Hill equation. The IC50 data reported herein is based on the steady state calculation.

T1 sequence (P22001 whole entry): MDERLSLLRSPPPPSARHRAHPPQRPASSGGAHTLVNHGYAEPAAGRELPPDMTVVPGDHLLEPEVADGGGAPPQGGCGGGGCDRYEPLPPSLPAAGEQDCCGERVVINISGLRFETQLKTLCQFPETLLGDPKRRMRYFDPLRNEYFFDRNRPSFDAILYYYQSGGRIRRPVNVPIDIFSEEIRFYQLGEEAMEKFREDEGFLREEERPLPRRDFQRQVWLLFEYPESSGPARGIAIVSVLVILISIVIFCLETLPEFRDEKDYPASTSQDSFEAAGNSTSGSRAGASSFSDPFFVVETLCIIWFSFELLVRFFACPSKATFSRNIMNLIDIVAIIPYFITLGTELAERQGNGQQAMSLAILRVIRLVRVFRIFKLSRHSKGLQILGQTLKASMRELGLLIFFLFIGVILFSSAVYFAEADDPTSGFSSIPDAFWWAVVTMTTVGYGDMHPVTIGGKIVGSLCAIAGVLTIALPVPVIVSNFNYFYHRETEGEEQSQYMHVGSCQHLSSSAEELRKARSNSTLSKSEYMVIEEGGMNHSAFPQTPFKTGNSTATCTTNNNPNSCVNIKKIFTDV

IC50	Compound
50 to 200 nM	CC(CC(=O)N(Cc1ccc(C(F)(F)F)nc1)C(C)c1ccc2c(c1)CCC2)c1ccc(F)cc1 (single isomer, unassigned) [Compound 39, N-[1-(2,3-dihydro-1H-inden-5-yl)ethyl]-3-(4-fluorophenyl)-N-{[6-(trifluoromethyl)pyridin-3-yl]methyl}butanamide]
50 to 200 nM	CC(CC(=O)N(Cc1ccc(C(F)(F)F)nc1)C(C)c1ccc2c(c1)CCC2)c1ccc(F)cc1 (single isomer, unassigned) [Compound 40, N-[1-(2,3-dihydro-1H-inden-5-yl)ethyl]-3-(4-fluorophenyl)-N-{[6-(trifluoromethyl)pyridin-3-yl]methyl}butanamide]
< 50 nM	C[C@H](CC(=O)N(Cc1ccccn1)C(c1ccc(Cl)cc1)C1CC1)c1ccc(F)cc1 (single isomer, unassigned) [Example 5]
< 50 nM	C[C@@H](CC(=O)N(Cc1ccccn1)C(c1ccc(Cl)cc1)C1CC1)c1ccc(F)cc1 (single isomer, unassigned) [Example 8]
< 50 nM	CC(CC(=O)N(Cc1ccccn1)C(c1ccc2c(c1)S(=O)(=O)C(C)(C)O2)C1CC1)c1ccc(F)cc1 (single isomer, unassigned) [Example 74, N-[cyclopropyl(2,2-dimethyl-3,3-dioxido-1,3-benzoxathiol-5-yl)methyl]-3-(4-fluorophenyl)-N-(pyridin-2-ylmethyl)butanamide]
< 50 nM	C[C@@H](CC(=O)N(Cc1ccccn1)[C@H](c1ccc(Cl)cc1)C1CC1)S(=O)(=O)c1ccc(F)cc1 (single isomer, unassigned) [Example 76, N-[(4-chlorophenyl)(cyclopropyl)methyl]-3-[(4-fluorophenyl)sulfonyl]-N-(pyridin-2-ylmethyl)butanamide]
50 to 200 nM	CC(C)[C@@H](c1ccc(F)cc1)N(CCN1CCC(F)CC1)C(=O)C1(S(=O)(=O)c2ccc(F)cc2)CC1 (single isomer, unassigned) [Example 94]
< 50 nM	O=C(CC1(c2ccc(F)cc2)CC1)N(Cc1ccccn1)[C@@H](c1ccc(Cl)cc1)C1CC1 (single isomer, unassigned) [Example 95, N-[(4-chlorophenyl)(cyclopropyl)methyl]-2-[1-(4-fluorophenyl)cyclopropyl]-N-(pyridin-2-ylmethyl)acetamide]
50 to 200 nM	C[C@@H](CC(=O)N(Cc1ccccn1)C1(c2cccc(Br)c2)CC1)c1ccc(F)cc1 (single isomer, unassigned) [Example 96]
< 50 nM	CCS(=O)(=O)c1cccc([C@@H](C2CC2)N(Cc2ccc(C(F)(F)F)nc2)C(=O)[C@@H]2C[C@H]2c2ccc(F)cc2)c1 (single isomer, unassigned) [Example 99]
< 50 nM	CC(C(=O)N(Cc1ccccn1)C(c1ccc(Cl)cc1)C1CC1)S(=O)(=O)c1ccc(F)cc1 (single isomer, unassigned) [Example 296]
200 to 1000 nM	CC(C(=O)N(Cc1ccccn1)C(c1ccc(Cl)cc1)C1CC1)S(=O)(=O)c1ccc(F)cc1 (single isomer, unassigned) [Example 297]
50 to 200 nM	O=C(C1C[C@H]1c1ccc(F)cc1)N(Cc1ccccn1)[C@@H](c1ccc(Cl)cc1)C1CC1 (stereo in doubt) [Example 13, N-[(4-chlorophenyl)(cyclopropyl)methyl]-2-(4-fluorophenyl)-N-(pyridin-2-ylmethyl)cyclopropanecarboxamide]
< 50 nM	O=C([C@H]1C[C@@H]1c1ccc(F)cc1)N(Cc1ccccn1)[C@@H](c1ccc(Cl)cc1)C1CC1 (stereo in doubt) [Example 14, N-[(4-chlorophenyl)(cyclopropyl)methyl]-2-(4-fluorophenyl)-N-(pyridin-2-ylmethyl)cyclopropanecarboxamide]
50 to 200 nM	O=C(C1CC1c1ccc(F)cc1)N(Cc1ccccn1)C(c1ccc(Cl)cc1)C1CC1 (stereo not drawn) [Example 10, N-[(4-chlorophenyl)(cyclopropyl)methyl]-2-(4-fluorophenyl)-N-(pyridin-2-ylmethyl)cyclopropanecarboxamide]
200 to 1000 nM	COc1ccccc1[C@H](C)N(Cc1ccccn1)C(=O)CCc1ccc(F)cc1 [Example 55, 3-(4-fluorophenyl)-N-[(1S)-1-(2-methoxyphenyl)ethyl]-N-(pyridin-2-ylmethyl)propanamide]

IC50	Compound
50 to 200 nM	COc1ccccc1[C@@H](C)N(Cc1ccccn1)C(=O)CCc1cccc(C(F)(F)F)c1 [Example 61, N-[(1R)-1-(2-methoxyphenyl)ethyl]-N-(pyridin-2-ylmethyl)-3-[3-(trifluoromethyl)phenyl]propanamide]
1000 to 2000 nM	CC(c1ccc2c(c1)[S+]([O-])C(C)(C)O2)N(Cc1ccccn1)C(=O)CCc1cccc(C(F)(F)F)c1 (stereo not drawn) [Example 63, N-[1-(2,2-dimethyl-3-oxido-1,3-benzoxathiol-5-yl)ethyl]-N-(pyridin-2-ylmethyl)-3-[3-(trifluoromethyl)phenyl]propanamide]
200 to 1000 nM	CCc1noc(C(C)N(Cc2ccccn2)C(=O)CC(C)c2ccc(F)cc2)n1 (stereo not drawn) [Example 87]
50 to 200 nM	COc1ccc(CN(C(=O)CC(C)S(=O)(=O)c2ccc(F)cc2)C(c2ccc(OC(F)F)cc2)C2CC2)cn1 (stereo not drawn) [Example 88, N-{cyclopropyl[4-(difluoromethoxy)phenyl]methyl}-3-[(4-fluorophenyl)sulfonyl]-N-[(6-methoxypyridin-3-yl)methyl]butanamide]
< 50 nM	O=C(CC1(c2ccc(F)cc2)CC1)N(Cc1cccnn1)[C@@H](c1ccc(OC(F)F)cc1)C1CC1 [Example 89, N—{(R)-cyclopropyl[4-(difluoromethoxy)phenyl]methyl}-2-[1-(4-fluorophenyl)cyclopropyl]-N-(pyridazin-3-ylmethyl)acetamide]
200 to 1000 nM	O=C(N(Cc1ccccn1)[C@@H](c1ccc(OC(F)F)cc1)C1CC1)C1(S(=O)(=O)c2ccc(F)cc2)CC1 [Example 91, N-{cyclopropyl[4-(difluoromethoxy)phenyl]methyl}-1-[(4-fluorophenyl)sulfonyl]-N-(pyridin-2-ylmethyl)cyclopropanecarboxamide]
200 to 1000 nM	O=C(N(Cc1ccccn1)[C@H](c1ccc(OC(F)F)cc1)C1CC1)C1(S(=O)(=O)c2ccc(F)cc2)CC1 [Example 92, N-{cyclopropyl[4-(difluoromethoxy)phenyl]methyl}-1-[(4-fluorophenyl)sulfonyl]-N-(pyridin-2-ylmethyl)cyclopropanecarboxamide]
< 50 nM	O=C([C@@H]1C[C@H]1c1ccc(F)cc1)N(Cc1cccnn1)[C@@H](c1ccc(OC(F)F)cc1)C1CC1 [Example 97, (1R,2R)-2-(4-Fluoro-phenyl)-cyclopropanecarboxylic acid [(R)-cyclopropyl-(4-difluoromethoxy-phenyl)-methyl]-pyridazin-3-ylmethyl-amide]
50 to 200 nM	O=C([C@@H]1C[C@H]1c1ccc(F)cc1)N(Cc1cccnn1)[C@H](c1ccc(OC(F)F)cc1)C1CC1 [Example 98, (1R,2R)-2-(4-Fluoro-phenyl)-cyclopropanecarboxylic acid [(S)-cyclopropyl-(4-difluoromethoxy-phenyl)-methyl]-pyridazin-3-ylmethyl-amide]
50 to 200 nM	CCS(=O)(=O)c1cccc([C@H](C2CC2)N(Cc2ccc(C(F)(F)F)nc2)C(=O)[C@@H]2C[C@H]2c2ccc(F)cc2)c1 [Example 100, (1R, 2R)-2-(4-Fluoro-phenyl)-cyclopropanecarboxylic acid [(S)-cyclopropyl-(3-ethanesulfonyl-phenyl)-methyl]-(6-trifluoromethyl-pyridin-3-ylmethyl)-amide]
200 to 1000 nM	CC(C)(c1ccccc1)N(Cc1ccccn1)C(=O)CS(=O)(=O)c1ccc(F)cc1 [Example 101, 2-(4-Fluorophenylsulfonyl)-N-(2-phenylpropan-2-yl)-N-(pyridine-2-ylmethyl)acetamide]
< 50 nM	CC(C)C(c1ccc(OC(F)F)cc1)N(Cc1ccc(F)cn1)C(=O)C1CC1c1ccc(F)cc1 (stereo not drawn) [Example 110]
50 to 200 nM	CC(C)C(c1ccc(OC(F)F)cc1)N(Cc1ccc(F)cn1)C(=O)C1CC1c1ccc(F)cc1 (stereo not drawn) [Example 111]
200 to 1000 nM	CC(C)C(c1ccc(OC(F)F)cc1)N(Cc1cccnn1)C(=O)C1CC1c1ccc(F)cc1 (stereo not drawn) [Example 113]
50 to 200 nM	CC(C)C(c1ccc(OC(F)F)cc1)N(Cc1cccnn1)C(=O)C1CC1c1ccc(F)cc1 (stereo not drawn) [Example 114]

Compound	IC50
CN1C2CCC1CC(N(C(=O)CS(=O)(=O)c1ccccc1)C(c1ccc(Cl)cc1)C1CC1)C2 (racemic) [Example 93, N-[(4-chlorophenyl)(cyclopropyl)methyl]-N-(8-methyl-8-azabicyclo[3.2.1]oct-3-yl)-2-(phenylsulfonyl)acetamide]	50 to 200 nM
CN1C2CCC1CC(N(C(=O)CS(=O)(=O)c1ccc(F)cc1)C(c1ccc(Cl)cc1)C1CC1)C2 (stereo not drawn) [Example 80, N-[(4-chlorophenyl)(cyclopropyl)methyl]-2-[(4-fluorophenyl)sulfonyl]-N-(8-methyl-8-azabicyclo[3.2.1]octan-3-yl)acetamide]	200 to 1000 nM
